Results published in patent EP3468532B1, “DISPENSING DEVICE AND PHARMACEUTICAL COMPOSITION FOR THE TREATMENT OF RHINITIS” (Glenmark Specialty S.A., priority 2017, dated 2019).
Where two headings read alike, the source gives them in different places. One block for each molecule: values may come before it.

Tests used:
[1] = Example 7: Phase III clinical study, plasma pharmacokinetics of TP-1; assay type: in vivo, human; conditions: for AUC / Cmax / Tmax: human, plasma; for Tmax: read-out: Tmax, Median (range)
Source text: This study consisted of four visits to the study site. After the initial screening visit (Visit 1), subjects who met all study selection criteria were required to undergo a single-blind placebo run-in period for 7-10 days. Following the completion of the run-in period, eligible subjects meeting the randomization criteria were enrolled and randomized to one of the four treatment arms. Subjects were dispensed medication as per the randomization list. Randomized subjects were required to undergo a 2 week (14 days) treatment period as per the protocol to assess the efficacy and safety of the assigned treatment. Subjects were instructed to record the symptom scores in a symptom assessment diary. They were also scheduled to have at least two blood samples for PK assessment during the treatment period.
• Plasma PK: Maximum plasma concentration (Cmax), time to attain Cmax (Tmax), and area under the plasma concentration-time curve over the dosing interval (AUCtau) will be estimated for mometasone furoate and olopatadine on Day 1 and Day 8 based on the pharmacokinetic analysis set (PKAS).
The pharmacokinetics (PK) of TP-1 were measured for a subset of patients in the phase III clinical study on day 1 and day 8 (steady state).

[2] = Example 11: single-dose cross-over study, pharmacokinetics of mometasone furoate; assay type: in vivo, human
Method: The pharmacokinetics of mometasone furoate in a fixed dose combination of mometasone furoate and olopatadine hydrochloride nasal spray was evaluated in a clinical trial. The clinical trial was a randomized, single-center, single-dose, open-label, three-period, six-sequence, cross-over study to evaluate three treatments administered by nasal spray. The three treatments included a combination of mometasone furoate and olopatadine hydrochloride nasal spray, mometasone furoate nasal spray and Nasonex® nasal spray.
(§1) The study consisted of a screening visit, 3 single-dose treatment periods with washout periods of 7 to 14 days between dosing in each treatment period, an early withdrawal visit if applicable, and a follow-up telephone call (or visit) 1 to 7 days after completing the third treatment period.
(§2) A total of 30 subjects were randomized to 1 of 6 treatment sequences and received at least 1 dose of study drug. All 30 subjects were included in the safety analysis set and the pharmacokinetic subset. All but 2 subjects completed the study per protocol.

[3] = human, in vivo
Method: The pharmacokinetics of olopatadine in a fixed dose combination of mometasone furoate and olopatadine hydrochloride nasal spray was evaluated in a clinical trial. The clinical trial was a randomized, single-center, single-dose, open-label, three-period, six-sequence, cross-over study to evaluate three treatments administered as a nasal spray. The three treatments included a combination of mometasone furoate and olopatadine hydrochloride nasal spray, olopatadine hydrochloride nasal spray and PATANASE® nasal spray.
as §1, §2

[4] = patients receiving TP-1, Day 8 (steady state)
[5] = human, in vivo, inhaled or intranasal, mometasone furoate in fixed dose combination nasal spray, single dose

AUC ([1]; mometasone furoate in plasma, patients receiving TP-1, Day 1, read-out: AUCtau, Geo Mean (Geo CV%)): 0.0262 ng·h/mL
AUC ([1]; mometasone furoate in plasma, patients receiving TP-1, Day 1, read-out: AUCtau, Mean (SD)): 0.0286 ng·h/mL
AUC ([1]; mometasone furoate in plasma, patients receiving TP-1, Day 1, read-out: AUCtau, Min-Max): 0.0121 to 0.0725 ng·h/mL
Cmax ([1]; mometasone furoate in plasma, patients receiving TP-1, Day 1, read-out: Cmax, Geo Mean (Geo CV%)): 0.00627 ng/mL
Cmax ([1]; mometasone furoate in plasma, patients receiving TP-1, Day 1, read-out: Cmax, Mean (SD)): 0.00678 ng/mL
Cmax ([1]; mometasone furoate in plasma, patients receiving TP-1, Day 1, read-out: Cmax, Min-Max): 0.00267 to 0.0128 ng/mL
AUC ([1]; mometasone furoate in plasma, patients receiving TP-1, Day 8 (steady state), read-out: AUCtau, Geo Mean (Geo CV%)): 0.0527 ng·h/mL
AUC ([1]; mometasone furoate in plasma, patients receiving TP-1, Day 8 (steady state), read-out: AUCtau, Mean (SD)): 0.0584 ng·h/mL
AUC ([1]; mometasone furoate in plasma, patients receiving TP-1, Day 8 (steady state), read-out: AUCtau, Min-Max): 0.0257 to 0.124 ng·h/mL
Cmax ([1]; mometasone furoate in plasma, patients receiving TP-1, Day 8 (steady state), read-out: Cmax, Geo Mean (Geo CV%)): 0.00917 ng/mL
Cmax ([1]; mometasone furoate in plasma, patients receiving TP-1, Day 8 (steady state), read-out: Cmax, Mean (SD)): 0.00992 ng/mL
Cmax ([1]; mometasone furoate in plasma, patients receiving TP-1, Day 8 (steady state), read-out: Cmax, Min-Max): 0.00358 to 0.0161 ng/mL
Tmax ([1]; patients receiving TP-1, Day 1): 1 h
Tmax, Median (range) [1, 4]: 1.00 (0.25-2) hour
AUC(0-t) [2, 5]: 0.085 ng·h/mL
Cmax [2, 5]: 0.0108 ng/mL
Tmax [2, 5]: 1 h
AUC(0-inf) ([2]; human, in vivo, inhaled or intranasal, mometasone furoate in fixed dose combination nasal spray, single dose, read-out: AUC(0-infinity)): 0.104 ng·h/mL
Quantifiable concentrations observed until the last time point ([2]; single dose nasal spray): 72 h
SMILES: C[C@@H]1C[C@H]2[C@@H]3CCC4=CC(=O)C=C[C@]4(C)[C@@]3(Cl)[C@@H](O)C[C@]2(C)[C@@]1(OC(=O)c1ccco1)C(=O)CCl [Mometasone furoate]

Quantifiable concentrations observed until the last time point [3]: 48 h
AUC ([1]; olopatadine in plasma, patients receiving TP-1, Day 1, read-out: AUCtau, Geo Mean (Geo CV%)): 72.9 ng·h/mL
AUC ([1]; olopatadine in plasma, patients receiving TP-1, Day 1, read-out: AUCtau, Mean (SD)): 75.5 ng·h/mL
AUC ([1]; olopatadine in plasma, patients receiving TP-1, Day 1, read-out: AUCtau, Min-Max): 39.3 to 117 ng·h/mL
Cmax ([1]; olopatadine in plasma, patients receiving TP-1, Day 1, read-out: Cmax, Geo Mean (Geo CV%)): 18.8 ng/mL
Cmax ([1]; olopatadine in plasma, patients receiving TP-1, Day 1, read-out: Cmax, Mean (SD)): 19.8 ng/mL
Cmax ([1]; olopatadine in plasma, patients receiving TP-1, Day 1, read-out: Cmax, Min-Max): 8.7 to 31.6 ng/mL
AUC ([1]; olopatadine in plasma, patients receiving TP-1, Day 8 (steady state), read-out: AUCtau, Geo Mean (Geo CV%)): 85.7 ng·h/mL
AUC ([1]; olopatadine in plasma, patients receiving TP-1, Day 8 (steady state), read-out: AUCtau, Mean (SD)): 88.8 ng·h/mL
AUC ([1]; olopatadine in plasma, patients receiving TP-1, Day 8 (steady state), read-out: AUCtau, Min-Max): 53.4 to 138 ng·h/mL
Cmax ([1]; olopatadine in plasma, patients receiving TP-1, Day 8 (steady state), read-out: Cmax, Geo Mean (Geo CV%)): 18.7 ng/mL
Cmax ([1]; olopatadine in plasma, patients receiving TP-1, Day 8 (steady state), read-out: Cmax, Mean (SD)): 19.8 ng/mL
Cmax ([1]; olopatadine in plasma, patients receiving TP-1, Day 8 (steady state), read-out: Cmax, Min-Max): 9.67 to 37.3 ng/mL
Tmax ([1]; patients receiving TP-1, Day 1): 1 h
Tmax, Median (range) [1, 4]: 1.00 (0.25-2) hour
SMILES: CN(C)CC/C=C1/c2ccccc2COc2ccc(CC(=O)O)cc21 [Olopatadine]
